The target in experiment [1] is T1, Sentrin-specific protease 6 (Homo sapiens, UniProt Q9GZR1).
T1 sequence (Q9GZR1 whole entry): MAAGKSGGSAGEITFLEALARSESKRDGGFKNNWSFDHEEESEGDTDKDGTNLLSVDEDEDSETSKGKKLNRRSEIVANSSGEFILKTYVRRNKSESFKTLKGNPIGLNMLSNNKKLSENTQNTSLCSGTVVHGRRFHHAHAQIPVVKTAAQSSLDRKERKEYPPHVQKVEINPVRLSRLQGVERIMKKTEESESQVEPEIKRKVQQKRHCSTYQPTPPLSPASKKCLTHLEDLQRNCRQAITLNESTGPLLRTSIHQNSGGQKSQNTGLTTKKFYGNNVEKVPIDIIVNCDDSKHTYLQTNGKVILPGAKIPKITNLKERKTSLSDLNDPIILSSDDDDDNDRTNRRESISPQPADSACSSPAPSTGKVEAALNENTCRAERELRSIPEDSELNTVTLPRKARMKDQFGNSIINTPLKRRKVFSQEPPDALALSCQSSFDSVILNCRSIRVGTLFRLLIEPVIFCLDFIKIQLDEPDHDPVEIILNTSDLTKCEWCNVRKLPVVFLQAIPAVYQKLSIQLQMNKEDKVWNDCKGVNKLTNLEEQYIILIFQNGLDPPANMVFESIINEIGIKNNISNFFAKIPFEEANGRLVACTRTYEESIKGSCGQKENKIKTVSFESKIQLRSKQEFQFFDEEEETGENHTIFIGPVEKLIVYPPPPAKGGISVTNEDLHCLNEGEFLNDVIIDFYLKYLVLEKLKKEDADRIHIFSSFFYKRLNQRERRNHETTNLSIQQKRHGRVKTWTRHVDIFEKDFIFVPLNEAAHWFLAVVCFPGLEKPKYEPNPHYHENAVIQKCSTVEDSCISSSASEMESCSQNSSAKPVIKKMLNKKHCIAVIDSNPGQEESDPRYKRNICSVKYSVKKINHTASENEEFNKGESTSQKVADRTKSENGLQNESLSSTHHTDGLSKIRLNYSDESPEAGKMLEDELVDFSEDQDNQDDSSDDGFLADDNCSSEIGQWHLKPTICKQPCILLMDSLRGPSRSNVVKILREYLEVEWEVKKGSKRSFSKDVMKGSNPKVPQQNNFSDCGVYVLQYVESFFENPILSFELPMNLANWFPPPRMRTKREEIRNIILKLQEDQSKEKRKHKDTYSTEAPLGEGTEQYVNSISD
Description: inhibition of human SENP6 catalytic domain – biochemical, luminescence, set 2, SAR follow-up (AID 588598). Format: functional.

Experiment [2] addresses T2, Sentrin-specific protease 7 (Homo sapiens, UniProt Q9BQF6).
T2 sequence (Q9BQF6 whole entry): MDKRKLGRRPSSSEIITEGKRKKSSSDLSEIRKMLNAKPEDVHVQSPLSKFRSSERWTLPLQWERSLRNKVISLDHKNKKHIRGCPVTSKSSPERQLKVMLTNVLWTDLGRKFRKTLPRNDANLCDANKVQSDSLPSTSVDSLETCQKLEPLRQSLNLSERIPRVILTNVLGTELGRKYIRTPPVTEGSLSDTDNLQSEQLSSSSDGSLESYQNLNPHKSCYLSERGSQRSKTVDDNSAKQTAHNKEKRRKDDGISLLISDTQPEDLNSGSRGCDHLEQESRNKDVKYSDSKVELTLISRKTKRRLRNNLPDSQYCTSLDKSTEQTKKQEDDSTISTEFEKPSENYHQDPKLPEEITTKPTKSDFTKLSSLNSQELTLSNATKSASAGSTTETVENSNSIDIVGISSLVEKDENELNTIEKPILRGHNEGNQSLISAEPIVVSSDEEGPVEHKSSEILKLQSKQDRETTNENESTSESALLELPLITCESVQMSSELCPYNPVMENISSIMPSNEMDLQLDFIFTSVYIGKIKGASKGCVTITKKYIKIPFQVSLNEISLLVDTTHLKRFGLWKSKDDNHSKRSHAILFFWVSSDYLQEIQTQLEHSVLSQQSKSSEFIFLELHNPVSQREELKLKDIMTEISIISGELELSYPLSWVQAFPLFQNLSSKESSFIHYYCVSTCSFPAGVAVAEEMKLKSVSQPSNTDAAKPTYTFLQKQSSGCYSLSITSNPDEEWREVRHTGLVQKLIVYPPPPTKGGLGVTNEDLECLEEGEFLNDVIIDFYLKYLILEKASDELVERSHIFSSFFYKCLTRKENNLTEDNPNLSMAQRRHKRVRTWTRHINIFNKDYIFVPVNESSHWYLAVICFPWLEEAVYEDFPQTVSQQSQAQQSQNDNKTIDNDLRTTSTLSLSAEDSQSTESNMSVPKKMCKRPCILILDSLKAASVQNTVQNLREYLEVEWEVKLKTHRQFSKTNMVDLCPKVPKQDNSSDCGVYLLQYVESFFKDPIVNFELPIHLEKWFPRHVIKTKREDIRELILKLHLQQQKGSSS
Put plainly: inhibition of human SENP7 cleavage activity – biochemical, luminescence, set 2, SAR follow-up (AID 588600). It counts as functional.

Experiment [3] addresses T3, Caspase-3 (Homo sapiens, UniProt P42574).
T3 sequence (P42574 whole entry): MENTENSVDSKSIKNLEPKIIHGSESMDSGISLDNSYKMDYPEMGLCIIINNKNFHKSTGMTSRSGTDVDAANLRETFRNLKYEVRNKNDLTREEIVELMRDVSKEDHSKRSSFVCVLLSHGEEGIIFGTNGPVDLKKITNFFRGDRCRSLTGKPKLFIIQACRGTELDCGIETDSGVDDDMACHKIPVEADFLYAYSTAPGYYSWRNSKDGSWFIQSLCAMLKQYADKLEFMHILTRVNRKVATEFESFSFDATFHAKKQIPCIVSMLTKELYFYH
Description: SAR Analysis of small molecule inhibitors of Sentrin-specific proteases (SENPs) using a Caspase-3 Selectivity assay. [Related pubchem assays (depositor defined):AID2540, AID2599, AID434973, AID489001]. It counts as functional.

Experiment [4] addresses T1, Sentrin-specific protease 6. Description: SAR Analysis of small molecule inhibitors of Sentrin-specific protease 6 (SENP6) using a Luminescent assay. [Related pubchem assays (depositor defined):AID2582, AID2599]. Format: functional.
The target in experiment [5] is T3, Caspase-3. Description: inhibition of recombinant caspase-3 activity – biochemical, luminescence, set 2, selectivity assay for SENP protease inhibitor project, SAR follow-up (AID 588599). Format: functional.
In experiment [6] the target is T2, Sentrin-specific protease 7. Put plainly: inhibition of human SENP7 cleavage activity – biochemical, luminescence, SAR follow-up (AID 504497). It counts as functional.
Experiment [7] has as its target T4, Sentrin-specific protease 8 (Homo sapiens, UniProt Q96LD8).
T4 sequence (Q96LD8 whole entry): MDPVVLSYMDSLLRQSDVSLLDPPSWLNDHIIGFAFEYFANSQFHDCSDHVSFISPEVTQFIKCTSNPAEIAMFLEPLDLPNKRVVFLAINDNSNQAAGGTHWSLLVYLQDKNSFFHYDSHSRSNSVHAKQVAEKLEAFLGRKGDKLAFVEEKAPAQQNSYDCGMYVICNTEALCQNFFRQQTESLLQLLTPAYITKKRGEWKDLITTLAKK
Put plainly: inhibition of human SENP8 cleavage activity – biochemical, luminescence, SAR follow-up (AID 504501). Format: functional.

Experiment [8] has as its target T4, Sentrin-specific protease 8. Put plainly: inhibition of sentrin protease 8 – biochemical, luminescence, set 2, SAR follow-up (AID 588601). Format: functional.
The target of experiment [9] is Latent membrane protein 1 (Human herpesvirus 4 (strain B95-8), UniProt P03230). Put plainly: LMP1 TES1 pathway selectivity over dsRED control – imaging, HEK293T, dual-color eGFP/dsRED, cherry-picks, selectivity assay for LMP1 NF-kB inhibitor project, dose response (AID 588398). Format: functional, cell-based.
Sequence of Latent membrane protein 1 (P03230 whole entry): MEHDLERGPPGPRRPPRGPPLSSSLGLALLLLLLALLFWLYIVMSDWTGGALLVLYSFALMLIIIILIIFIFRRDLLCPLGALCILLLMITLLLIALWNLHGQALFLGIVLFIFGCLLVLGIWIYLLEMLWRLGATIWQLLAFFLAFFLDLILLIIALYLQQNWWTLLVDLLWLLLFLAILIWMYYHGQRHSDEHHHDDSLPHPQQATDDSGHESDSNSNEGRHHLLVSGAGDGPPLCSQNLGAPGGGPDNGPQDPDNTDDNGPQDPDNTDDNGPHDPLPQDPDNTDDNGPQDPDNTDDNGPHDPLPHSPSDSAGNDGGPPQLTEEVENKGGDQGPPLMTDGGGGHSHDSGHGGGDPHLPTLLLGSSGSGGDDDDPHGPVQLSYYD
The target of experiment [10] is G-protein coupled receptor 55 (Homo sapiens, UniProt Q9Y2T6). Description: selective activators of receptor GPR55 – imaging, U2OS cells, beta-arrestin-GFP redistribution, primary screen (AID 1961). Format: functional.
Sequence of G-protein coupled receptor 55 (Q9Y2T6 whole entry, the tested form may be a part): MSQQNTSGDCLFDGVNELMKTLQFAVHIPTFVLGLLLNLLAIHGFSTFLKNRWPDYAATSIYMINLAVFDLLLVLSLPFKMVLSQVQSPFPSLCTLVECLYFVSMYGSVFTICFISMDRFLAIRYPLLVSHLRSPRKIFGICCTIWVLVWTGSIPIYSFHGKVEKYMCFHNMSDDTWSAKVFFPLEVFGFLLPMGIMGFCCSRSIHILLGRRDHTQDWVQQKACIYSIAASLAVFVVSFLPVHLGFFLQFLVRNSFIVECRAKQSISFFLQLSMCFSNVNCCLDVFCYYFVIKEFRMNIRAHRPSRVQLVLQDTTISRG
For experiment [11], the target named is T5, Hepatocyte nuclear factor 4-alpha (Homo sapiens, UniProt P41235).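 Note: biochemical luminescence-based dose-response counterscreen measuring inhibition of HNF4 dimerization, run alongside a screen for blockers of ABHD5–perilipin-5 interaction; split luciferase complementation of HNF4 fusion proteins in cell lysate measuring dimerization.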
T5 sequence (P41235 whole entry): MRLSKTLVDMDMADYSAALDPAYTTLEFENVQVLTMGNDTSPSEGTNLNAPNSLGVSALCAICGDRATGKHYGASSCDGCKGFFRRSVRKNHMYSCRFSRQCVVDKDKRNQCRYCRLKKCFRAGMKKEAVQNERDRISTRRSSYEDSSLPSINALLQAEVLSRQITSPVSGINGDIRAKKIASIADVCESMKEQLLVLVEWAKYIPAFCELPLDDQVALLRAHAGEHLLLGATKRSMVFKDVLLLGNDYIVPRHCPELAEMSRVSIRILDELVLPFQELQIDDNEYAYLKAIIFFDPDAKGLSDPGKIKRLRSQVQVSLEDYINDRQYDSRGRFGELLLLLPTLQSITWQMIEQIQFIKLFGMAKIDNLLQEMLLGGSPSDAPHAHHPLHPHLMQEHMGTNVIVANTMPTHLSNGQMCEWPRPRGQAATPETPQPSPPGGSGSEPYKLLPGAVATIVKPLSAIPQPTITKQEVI
It counts as functional, cell-based.

For experiment [12], the system named is HeLa. Description: toxicity to human HeLa cells – cell-based, 48 h, plate reader, cherry-picks, cytotoxicity control, dose response (AID 504942). It counts as functional.
Experiment [13] concerns the target Neurotensin receptor type 1 (Homo sapiens, UniProt P30989). Format: functional.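 Note: Image-based confirmatory dose-response assay measuring agonist activity at NTR1; NTR1-expressing U2OS osteosarcoma cells imaged for beta-arrestin GFP spot formation; agonist potency where compounds increase beta-arrestin recruitment.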
For experiment [14], the target named is T6, Acyl-homoserine lactone acylase PvdQ (Pseudomonas aeruginosa (strain LESB58), UniProt Q9I194).
T6 sequence (Q9I194 whole entry): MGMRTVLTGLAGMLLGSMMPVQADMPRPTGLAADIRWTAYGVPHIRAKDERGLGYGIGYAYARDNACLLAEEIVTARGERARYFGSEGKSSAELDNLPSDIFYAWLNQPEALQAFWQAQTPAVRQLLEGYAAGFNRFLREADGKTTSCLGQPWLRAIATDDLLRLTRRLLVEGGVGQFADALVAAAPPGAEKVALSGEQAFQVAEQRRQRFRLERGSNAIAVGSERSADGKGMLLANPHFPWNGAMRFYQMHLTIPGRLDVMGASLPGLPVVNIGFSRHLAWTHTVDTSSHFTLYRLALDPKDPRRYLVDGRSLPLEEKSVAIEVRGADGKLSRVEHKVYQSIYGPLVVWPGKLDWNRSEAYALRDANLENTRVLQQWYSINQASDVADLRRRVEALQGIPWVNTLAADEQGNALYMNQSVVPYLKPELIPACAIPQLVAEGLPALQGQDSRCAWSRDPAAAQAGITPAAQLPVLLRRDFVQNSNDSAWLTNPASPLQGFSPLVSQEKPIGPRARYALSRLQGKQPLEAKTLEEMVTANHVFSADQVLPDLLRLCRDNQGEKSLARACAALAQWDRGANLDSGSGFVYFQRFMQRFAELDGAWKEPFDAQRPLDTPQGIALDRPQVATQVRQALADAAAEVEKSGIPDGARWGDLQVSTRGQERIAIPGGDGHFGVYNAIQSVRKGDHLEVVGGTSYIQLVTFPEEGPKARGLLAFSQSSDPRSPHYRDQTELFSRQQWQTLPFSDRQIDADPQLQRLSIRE
Put plainly: PvdQ acylase enzyme activity blockers – biochemical, fluorescence, plate reader and imaging, cherry-picks, dose response (AID 493231).

Experiment [15] deals with DNA topoisomerase (Yersinia pestis, UniProt A0A2S9PM60). Description: Yersinia topoisomerase I cleavage product accumulation – biochemical, cherry-pick, dose response (AID 588525).
Sequence of DNA topoisomerase (A0A2S9PM60 whole entry): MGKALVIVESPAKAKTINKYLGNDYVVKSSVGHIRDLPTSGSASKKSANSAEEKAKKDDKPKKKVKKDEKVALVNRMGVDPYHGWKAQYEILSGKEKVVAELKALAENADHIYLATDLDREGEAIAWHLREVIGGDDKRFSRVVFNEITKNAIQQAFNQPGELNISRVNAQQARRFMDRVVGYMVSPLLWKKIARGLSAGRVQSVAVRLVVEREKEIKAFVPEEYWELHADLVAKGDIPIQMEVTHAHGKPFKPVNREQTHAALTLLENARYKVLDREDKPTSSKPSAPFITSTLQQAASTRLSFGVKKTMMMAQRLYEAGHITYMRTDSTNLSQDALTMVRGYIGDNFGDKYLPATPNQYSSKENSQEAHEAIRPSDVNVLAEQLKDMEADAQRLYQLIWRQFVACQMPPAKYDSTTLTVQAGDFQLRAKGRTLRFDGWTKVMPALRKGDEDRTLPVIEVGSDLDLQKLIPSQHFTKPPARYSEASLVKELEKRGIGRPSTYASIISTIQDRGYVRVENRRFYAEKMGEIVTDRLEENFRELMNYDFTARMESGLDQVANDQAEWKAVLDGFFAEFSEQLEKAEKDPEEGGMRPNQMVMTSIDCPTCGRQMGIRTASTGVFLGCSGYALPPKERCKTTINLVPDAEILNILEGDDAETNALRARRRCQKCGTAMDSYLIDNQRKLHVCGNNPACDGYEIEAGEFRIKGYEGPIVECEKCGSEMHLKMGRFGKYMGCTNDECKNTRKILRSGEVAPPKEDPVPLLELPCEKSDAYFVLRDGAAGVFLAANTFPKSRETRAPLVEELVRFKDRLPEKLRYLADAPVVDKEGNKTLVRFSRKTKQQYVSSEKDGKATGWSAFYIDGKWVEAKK

The source made the active and inactive calls. Cut-off read from the data, not from the text of the source, for most assays here: actives have a measured IC50 and inactives only a lower limit.

Data on four compounds can be found in ChEMBL document CHEMBL1201862, “PubChem BioAssay data set” (2004).

Sequence of Neurotensin receptor type 1 (P30989 whole entry): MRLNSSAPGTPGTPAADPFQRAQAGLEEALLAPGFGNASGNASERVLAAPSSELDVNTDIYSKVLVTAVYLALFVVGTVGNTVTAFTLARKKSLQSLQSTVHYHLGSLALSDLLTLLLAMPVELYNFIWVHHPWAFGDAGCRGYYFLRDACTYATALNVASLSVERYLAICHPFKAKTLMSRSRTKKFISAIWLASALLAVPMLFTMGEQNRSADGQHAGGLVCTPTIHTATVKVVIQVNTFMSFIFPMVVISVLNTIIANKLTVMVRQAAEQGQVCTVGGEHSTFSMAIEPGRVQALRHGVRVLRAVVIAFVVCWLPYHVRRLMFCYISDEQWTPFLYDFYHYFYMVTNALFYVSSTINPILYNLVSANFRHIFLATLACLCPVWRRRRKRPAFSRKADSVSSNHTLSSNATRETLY

By IC50 is commonly meant the midpoint of a concentration-inhibition curve. Regarding `O=C(Nc1nc2ccc(Cl)cc2s1)c1nccs1`, the IC50 in experiment [1] is 2.89 µM (active); in experiment [2], 2.9 µM (active); in [3], 2.4 µM (active); in [4] it was 3.2 µM (active); in experiment [5], 1.98 µM (active); in experiment [6], 2.5 µM (active). Moreover, the IC50 is 3.5 µM (active) in [7] and 2.38 µM (active) in [8].

For orientation: AC50 means the midpoint of the concentration-response curve, whichever way the signal moves. Take `O=C1N[C@@H](Cc2c[nH]c3ccccc23)COC(=O)[C@H](Cc2ccc(F)cc2)C/C=C\C[C@H]1CC(=O)N(CCO)Cc1ccccc1`: the AC50 in experiment [9] is 30.1 µM (active).

A word on the EC50: it is the concentration giving half of the maximal effect. Consider `O=CC1=C(c2ccccc2)Oc2ccccc2O1`, for which the results for the EC50 in experiment [10] and in experiment [13] were 2.28 µM (active) and 16 µM (active), respectively. For the same compound, the IC50 in experiment [11] was 10.4 µM (inactive). Further, the AC50 in [12] was 23.9 µM (active); in [14], 2.14 µM (active).

For `CC(C)(C)c1ccc(OCCn2nc(C(=O)O)c3ccccc3c2=O)cc1`, the AC50 in experiment [15] was 9.12 µM (active).
